Source: ChEMBL document CHEMBL4732070, “Design, synthesis and biological assessment of new selective COX-2 inhibitors including methyl sulfonyl moiety” (Eur J Med Chem, 2021)
pIC50: −log10 of the molar value.

Experiments:
[1] = molecular target: T1, Prostaglandin G/H synthase 1 (Homo sapiens, UniProt P23219); assay: Inhibition of COX-1 (unknown origin) using arachidonic acid as substrate at 1000 uM measured after 10 mins by fluorometric based multimode microplate reader relative to control
[2] = molecular target: T1, Prostaglandin G/H synthase 1; assay: Inhibition of COX-1 (unknown origin) using arachidonic acid as substrate measured after 10 mins by fluorometric based multimode microplate reader
[3] = molecular target: T1, Prostaglandin G/H synthase 1; assay: Inhibition of COX-1 (unknown origin) using arachidonic acid as substrate at 100 uM measured after 10 mins by fluorometric based multimode microplate reader relative to control

T1 sequence (P23219 whole entry): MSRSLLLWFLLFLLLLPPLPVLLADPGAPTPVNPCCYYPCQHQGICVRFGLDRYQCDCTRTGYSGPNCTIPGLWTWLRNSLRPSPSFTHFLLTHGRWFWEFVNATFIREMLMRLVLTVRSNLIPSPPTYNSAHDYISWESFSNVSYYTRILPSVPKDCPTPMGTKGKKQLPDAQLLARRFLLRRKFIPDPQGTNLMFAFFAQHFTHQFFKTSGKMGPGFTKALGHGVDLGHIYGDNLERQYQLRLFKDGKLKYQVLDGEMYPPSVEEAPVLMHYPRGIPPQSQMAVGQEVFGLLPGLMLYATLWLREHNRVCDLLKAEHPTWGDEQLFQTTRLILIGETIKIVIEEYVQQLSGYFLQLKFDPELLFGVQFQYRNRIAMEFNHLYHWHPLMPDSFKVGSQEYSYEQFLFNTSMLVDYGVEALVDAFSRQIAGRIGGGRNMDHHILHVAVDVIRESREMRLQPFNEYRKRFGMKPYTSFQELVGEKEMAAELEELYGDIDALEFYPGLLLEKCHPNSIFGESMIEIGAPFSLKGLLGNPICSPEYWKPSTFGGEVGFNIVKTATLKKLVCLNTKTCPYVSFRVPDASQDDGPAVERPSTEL

Row | Structure (SMILES) | inhibition [1] | pIC50 [2] | inhibition [3]
1 | CS(=O)(=O)c1ccc(-c2csc(N/N=C/c3ccc(O)cc3)n2)cc1 | 48.9% | < 3.00 | 32.2%
2 | COc1cccc(/C=N/Nc2nc(-c3ccc(S(C)(=O)=O)cc3)cs2)c1OC | 57.4% | < 4.00 | 40.8%
3 | COc1ccccc1/C=N/Nc1nc(-c2ccc(S(C)(=O)=O)cc2)cs1 | 43.1% | < 3.00 | 30.8%
4 | CS(=O)(=O)c1ccc(-c2csc(N/N=C/c3cccc(O)c3)n2)cc1 | 66.3% | < 4.00 | 40.9%
5 | COc1ccc(/C=N/Nc2nc(-c3ccc(S(C)(=O)=O)cc3)cs2)cc1OC | 55.6% | < 4.00 | 40%
6 | COc1ccc(O)c(/C=N/Nc2nc(-c3ccc(S(C)(=O)=O)cc3)cs2)c1 | 53% | < 4.00 | 43%
7 | COc1ccc(OC)c(/C=N/Nc2nc(-c3ccc(S(C)(=O)=O)cc3)cs2)c1 | 60% | < 4.00 | 35%
8 | COc1cc(/C=N/Nc2nc(-c3ccc(S(C)(=O)=O)cc3)cs2)cc(OC)c1OC | 45.7% | < 3.00 | 35.8%
9 | COc1ccc(/C=N/Nc2nc(-c3ccc(S(C)(=O)=O)cc3)cs2)cc1O | 61.3% | < 4.00 | 41.2%
10 | COc1cc(/C=N/Nc2nc(-c3ccc(S(C)(=O)=O)cc3)cs2)cc(OC)c1O | 43.3% | < 3.00 | 32.3%
11 | COc1ccc(/C=N/Nc2nc(-c3ccc(S(C)(=O)=O)cc3)cs2)c(OC)c1 | 44.6% | < 3.00 | 27.7%
12 | CC(C)Cc1ccc(C(C)C(=O)O)cc1 (configuration not stated) |  |  | 89.4%
13 | CS(=O)(=O)c1ccc(-c2csc(N/N=C/c3ccc(O)cc3O)n2)cc1 | 47.1% | < 3.00 | 31.4%
